# Source: patent US20250228832A1, “METHODS FOR TREATING DISORDERS AMELIORATED BY MUSCARINIC RECEPTOR ACTIVATION” (KARUNA THERAPEUTICS, INC., priority 2022, published 2025)
# Like-named read-outs stand apart in the source and are kept apart here.
# Experiments:
# Assay type in all cases: cell-based
# [1] = molecular target: T1, human M5 receptor (Homo sapiens, UniProt P08912); experiment: HTRF IP-One curve shift assay, M5; details: M5
# T1 construct: expressed in transfected cells
# T1 sequence (P08912 1-532): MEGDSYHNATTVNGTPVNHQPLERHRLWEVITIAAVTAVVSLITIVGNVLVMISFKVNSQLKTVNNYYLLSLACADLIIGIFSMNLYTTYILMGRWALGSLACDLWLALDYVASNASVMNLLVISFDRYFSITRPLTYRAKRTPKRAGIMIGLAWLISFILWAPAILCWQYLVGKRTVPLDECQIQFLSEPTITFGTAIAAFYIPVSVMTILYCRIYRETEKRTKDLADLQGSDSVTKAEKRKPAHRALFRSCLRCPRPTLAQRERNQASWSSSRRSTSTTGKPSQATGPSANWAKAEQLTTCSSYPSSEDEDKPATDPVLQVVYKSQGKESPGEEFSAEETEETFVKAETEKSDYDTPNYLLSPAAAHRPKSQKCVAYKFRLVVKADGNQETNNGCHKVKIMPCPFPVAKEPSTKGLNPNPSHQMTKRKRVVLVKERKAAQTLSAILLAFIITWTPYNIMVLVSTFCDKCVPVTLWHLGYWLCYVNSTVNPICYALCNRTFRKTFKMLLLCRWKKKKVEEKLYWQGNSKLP
# Description: (§1) HTRF IP-One assays were performed using frozen cell aliquots prepared from CHO-K1 cell lines stably expressing human M1, M3, or M5 receptors. Cells were frozen following typical cell freezing protocols. […] Dissociated cells were quenched in full media and collected by centrifugation at 290×g for 5 min. […] 1 mL aliquots of cells were dispensed into cryovial tubes and frozen in a controlled rate cryo-freezer container at −80° C. Cells were stored at −80° C. (or in liquid nitrogen if stored for at least six months) until the day of the assay.
# (§2) On the day before the assay, frozen cells were rapidly thawed in a 37° C. water bath, brought up in 20 mL of full media, and collected via centrifugation at 290×g for 5 min. […] Next, […] of cells (10,000 cells/well) were dispensed into 384-well coming plates in triplicate. Cells were incubated overnight in a 37° C., 5% CO2 cell incubator.
# (§3) Then, 2 μL of test compounds were added to the cells and incubated for 10 min at 37° C. in a 5% CO2 cell incubator. Next, 2 μL of diluted agonists serially diluted in assay buffer at 7× final assay concentration was added to assay plates. Finally, assay plates were incubated for two hours at 37° C. in a 5% CO2 cell incubator.
# (§4) Six μL of IP-1 detection reagents (IP-One Gq HTRF kit, Cisbio Cat #62IPAPEJ) were dispensed to the cells. First, the plates were incubated for two hours at room temperature (IP-One detection reagents were made according to Cisbio protocol). Then, plates were read on an Envision plate reader following the Cisbio guidelines.
# (§5) Raw data for all assays was transmitted directly from plate readers into the Beacon database for processing. All assay plates contained positive and negative control wells for data normalization and scaling. […] All control wells contained DMSO at a final assay concentration that matched the test compound wells.
# (§6) Counts from the standard curve wells were used to generate a sigmoidal standard curve, which was used to transform the raw counts from each well on the plate (scaling control wells and compound wells) into a pmol/well IP1 value.
# [2] = molecular target: T2, human M1 receptor (Homo sapiens, UniProt P11229); experiment: HTRF IP-One curve shift assay, M1
# T2 construct: expressed in transfected cells
# T2 sequence (P11229 1-460): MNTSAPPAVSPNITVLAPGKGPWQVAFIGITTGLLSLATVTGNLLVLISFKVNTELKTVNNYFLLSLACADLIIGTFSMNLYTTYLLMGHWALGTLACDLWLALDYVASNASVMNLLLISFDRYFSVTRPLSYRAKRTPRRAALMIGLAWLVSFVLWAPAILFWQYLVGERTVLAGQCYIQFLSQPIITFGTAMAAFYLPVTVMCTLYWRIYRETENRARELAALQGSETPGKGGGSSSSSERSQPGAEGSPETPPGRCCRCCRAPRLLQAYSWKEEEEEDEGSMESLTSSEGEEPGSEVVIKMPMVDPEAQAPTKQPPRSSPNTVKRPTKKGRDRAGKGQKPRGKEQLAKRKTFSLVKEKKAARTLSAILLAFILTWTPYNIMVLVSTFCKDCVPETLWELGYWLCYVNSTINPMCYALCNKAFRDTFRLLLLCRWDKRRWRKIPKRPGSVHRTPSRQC
# Description: as §1, §2, §3, §4, §5, §6
# [3] = molecular target: T3, human M3 receptor (Homo sapiens, UniProt P20309); experiment: HTRF IP-One curve shift assay, M3
# T3 construct: expressed in transfected cells
# T3 sequence (P20309 whole entry): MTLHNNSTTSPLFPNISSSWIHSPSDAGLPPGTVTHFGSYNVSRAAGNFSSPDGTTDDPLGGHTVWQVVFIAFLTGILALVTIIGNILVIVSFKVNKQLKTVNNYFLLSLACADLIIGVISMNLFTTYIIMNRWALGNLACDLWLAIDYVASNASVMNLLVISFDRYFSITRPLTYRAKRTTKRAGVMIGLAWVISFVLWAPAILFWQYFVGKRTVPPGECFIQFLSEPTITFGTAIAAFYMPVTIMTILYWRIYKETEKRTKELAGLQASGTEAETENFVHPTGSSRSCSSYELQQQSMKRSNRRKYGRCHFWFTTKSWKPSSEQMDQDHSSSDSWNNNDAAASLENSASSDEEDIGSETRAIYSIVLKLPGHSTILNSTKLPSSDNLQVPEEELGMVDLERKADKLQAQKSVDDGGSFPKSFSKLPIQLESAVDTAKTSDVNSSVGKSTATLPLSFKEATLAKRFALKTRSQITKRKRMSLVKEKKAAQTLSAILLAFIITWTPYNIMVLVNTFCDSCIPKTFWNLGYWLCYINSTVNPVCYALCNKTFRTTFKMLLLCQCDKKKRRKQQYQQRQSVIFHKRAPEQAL
# Description: as §1, §2, §3, §4, §5, §6
# [4] = Emraclidine concentration 41.2 nM, read-out: Emax
# [5] = Emraclidine concentration 123 nM, read-out: Emax
# [6] = Emraclidine concentration 370 nM, read-out: Emax
# [7] = Emraclidine concentration 1110 nM, read-out: Emax
# [8] = Emraclidine concentration 3330 nM, read-out: Emax
# [9] = Emraclidine concentration […], read-out: Emax
# [10] = MK-4710 concentration 41.2 nM, read-out: Emax
# [11] = MK-4710 concentration 123 nM, read-out: Emax
# [12] = MK-4710 concentration 370 nM, read-out: Emax
# [13] = MK-4710 concentration 1110 nM, read-out: Emax
# [14] = MK-4710 concentration 3330 nM, read-out: Emax
# [15] = MK-4710 concentration […], read-out: Emax
# [16] = Emraclidine concentration 370 nM
compound,measurement,setting,value
"CCCCCCCOc1nsnc1C1=CCCCN1C [KTX-593, 3-(heptyloxy)-4-(1-methyl-1,4,5,6-tetrahydropyridin-2-yl)-1,2,5-thiadiazole]",EC50,[1]; Emraclidine concentration 0 nM,403 nM
same,Emax,[1]; Emraclidine concentration 0 nM,63.6%
same,Emax,[1]; [4],71.8%
same,Emax,[1]; [5],68.8%
same,Emax at […],[1]; [6],67.4%
same,Emax,[1]; [7],66.9%
same,Emax,[1]; [8],71.9%
same,Emax at […],[1]; [9],67.1%
same,"α (cooperativity, affinity shift)",[1]; M4 PAM Emraclidine,10.6
same,"β (cooperativity, efficacy shift)",[1]; M4 PAM Emraclidine,1.1
same,τ (agonist pharmacology),[1]; M4 PAM Emraclidine,0.0
same,"α (cooperativity, affinity shift)",[1]; M4 PAM MK-4710,1.4
same,"β (cooperativity, efficacy shift)",[1]; M4 PAM MK-4710,0.8
same,τ (agonist pharmacology),[1]; M4 PAM MK-4710,0.1
same,EC50,[1]; MK-4710 concentration 0 nM,245 nM
same,Emax,[1]; MK-4710 concentration 0 nM,81.82%
same,Emax,[1]; [10],78.3%
same,Emax,[1]; [11],78.8%
same,Emax at […],[1]; [12],76.6%
same,Emax,[1]; [13],69.7%
same,Emax,[1]; [14],77.3%
same,Emax at […],[1]; [15],69.7%
same,EC50,[2]; Emraclidine concentration 0 nM,10.1 nM
same,Emax,[2]; Emraclidine concentration 0 nM,77.8%
same,Emax,[2]; [4],83.1%
same,Emax,[2]; [5],85.4%
same,Emax at […],[2]; [16],88.4%
same,Emax,[2]; [7],85.2%
same,Emax,[2]; [8],87.8%
same,Emax at […],[2]; Emraclidine concentration […],83.9%
same,"α (cooperativity, affinity shift)",[2]; M4 PAM Emraclidine,3.2
same,"β (cooperativity, efficacy shift)",[2]; M4 PAM Emraclidine,0.8
same,τ (agonist pharmacology),[2]; M4 PAM Emraclidine,0.0
same,"α (cooperativity, affinity shift)",[2]; M4 PAM MK-4710,4.1
same,"β (cooperativity, efficacy shift)",[2]; M4 PAM MK-4710,0.6
same,τ (agonist pharmacology),[2]; M4 PAM MK-4710,0.0
same,EC50,[2]; MK-4710 concentration 0 nM,8.7 nM
same,Emax,[2]; MK-4710 concentration 0 nM,83.7%
same,EC50,[2]; MK-4710 concentration 41.2 nM,7.6 nM
same,Emax,[2]; [10],82.7%
same,EC50,[2]; MK-4710 concentration 123 nM,8.3 nM
same,Emax,[2]; [11],79.9%
same,EC50,[2]; MK-4710 concentration 370 nM,6.5 nM
same,Emax at […],[2]; MK-4710 concentration 370 nM,78.3%
same,EC50,[2]; MK-4710 concentration 1110 nM,6.8 nM
same,Emax,[2]; [13],76.8%
same,EC50,[2]; MK-4710 concentration 3330 nM,5.3 nM
same,Emax,[2]; [14],76.7%
same,EC50,[2]; MK-4710 concentration […],8.8 nM
same,Emax at […],[2]; MK-4710 concentration […],77.6%
same,EC50,[3]; Emraclidine concentration 0 nM,224 nM
same,Emax,[3]; Emraclidine concentration 0 nM,63.5%
same,Emax,[3]; [4],63.9%
same,Emax,[3]; [5],68.2%
same,Emax at […],[3]; [16],73.4%
same,Emax,[3]; [7],64.6%
same,Emax,[3]; [8],73%
same,Emax at […],[3]; Emraclidine concentration […],71.1%
same,"α (cooperativity, affinity shift)",[3]; M4 PAM Emraclidine,7.6
same,"β (cooperativity, efficacy shift)",[3]; M4 PAM Emraclidine,1.1
same,τ (agonist pharmacology),[3]; M4 PAM Emraclidine,0.0
same,"α (cooperativity, affinity shift)",[3]; M4 PAM MK-4710,6.2
same,"β (cooperativity, efficacy shift)",[3]; M4 PAM MK-4710,1.6
same,τ (agonist pharmacology),[3]; M4 PAM MK-4710,0.0
same,EC50,[3]; MK-4710 concentration 0 nM,45 nM
same,Emax,[3]; MK-4710 concentration 0 nM,80.8%
same,Emax,[3]; [10],75.4%
same,Emax,[3]; [11],66.6%
same,Emax at […],[3]; MK-4710 concentration 370 nM,76.7%
same,Emax,[3]; [13],74.3%
same,Emax,[3]; [14],86%
same,Emax at […],[3]; MK-4710 concentration […],72.7%
"CCCCCOc1nsnc1C1=CCCCN1C [KTX-517, 3-(1-methyl-1,4,5,6-tetrahydropyridin-2-yl)-4-(pentyloxy)-1,2,5-thiadiazole]",EC50,[1]; Emraclidine concentration 0 nM,121 nM
same,Emax,[1]; Emraclidine concentration 0 nM,41.68%
same,EC50,[1]; Emraclidine concentration 41.2 nM,110 nM
same,Emax,[1]; [4],45.4%
same,EC50,[1]; Emraclidine concentration 123 nM,118 nM
same,Emax,[1]; [5],62.7%
same,EC50,[1]; [16],161 nM
same,Emax at […],[1]; [6],62.4%
same,EC50,[1]; Emraclidine concentration 1110 nM,243 nM
same,Emax,[1]; [7],69.3%
same,EC50,[1]; Emraclidine concentration 3330 nM,153 nM
same,Emax,[1]; [8],72%
same,EC50,[1]; Emraclidine concentration […],111 nM
same,Emax at […],[1]; [9],44.1%
same,"α (cooperativity, affinity shift)",[1]; M4 PAM Emraclidine,1.0
same,"β (cooperativity, efficacy shift)",[1]; M4 PAM Emraclidine,4.5
same,τ (agonist pharmacology),[1]; M4 PAM Emraclidine,0.1
same,"α (cooperativity, affinity shift)",[1]; M4 PAM MK-4710,2.2
same,"β (cooperativity, efficacy shift)",[1]; M4 PAM MK-4710,1.9
same,τ (agonist pharmacology),[1]; M4 PAM MK-4710,0.0
same,EC50,[1]; MK-4710 concentration 0 nM,168 nM
same,Emax,[1]; MK-4710 concentration 0 nM,53.95%
same,Emax,[1]; [10],62.5%
same,Emax,[1]; [11],65.7%
same,Emax at […],[1]; [12],68%
same,Emax,[1]; [13],69.6%
same,Emax,[1]; [14],82.2%
same,Emax at […],[1]; [15],54.9%
same,EC50,[2]; Emraclidine concentration 0 nM,7 nM
same,Emax,[2]; Emraclidine concentration 0 nM,61.6%
same,Emax,[2]; [4],65.6%
same,Emax,[2]; [5],66.5%
same,Emax at […],[2]; [16],71.3%
same,Emax,[2]; [7],72.8%
same,Emax,[2]; [8],79%
same,Emax at […],[2]; Emraclidine concentration […],61%
same,"α (cooperativity, affinity shift)",[2]; M4 PAM Emraclidine,11.3
same,"β (cooperativity, efficacy shift)",[2]; M4 PAM Emraclidine,2.2
same,τ (agonist pharmacology),[2]; M4 PAM Emraclidine,0.0
same,"α (cooperativity, affinity shift)",[2]; M4 PAM MK-4710,3.5
same,"β (cooperativity, efficacy shift)",[2]; M4 PAM MK-4710,0.6
same,τ (agonist pharmacology),[2]; M4 PAM MK-4710,0.0
same,EC50,[2]; MK-4710 concentration 0 nM,8.4 nM
same,Emax,[2]; [10],81.5%
same,Emax,[2]; [11],79.6%
same,Emax at […],[2]; MK-4710 concentration 370 nM,80.9%
same,Emax,[2]; [13],86.1%
same,Emax,[2]; [14],85.8%
same,Emax at […],[2]; MK-4710 concentration […],77.8%
same,EC50,[3]; Emraclidine concentration 0 nM,24.4 nM
same,Emax,[3]; Emraclidine concentration 0 nM,42.7%
same,Emax,[3]; [4],45.3%
same,Emax,[3]; [5],50.2%
same,Emax at […],[3]; [16],52.1%
same,Emax,[3]; [7],54.8%
same,Emax,[3]; [8],59.6%
same,Emax at […],[3]; Emraclidine concentration […],43%
same,"α (cooperativity, affinity shift)",[3]; M4 PAM Emraclidine,1.0
same,"β (cooperativity, efficacy shift)",[3]; M4 PAM Emraclidine,2.8
same,τ (agonist pharmacology),[3]; M4 PAM Emraclidine,0.0
same,"α (cooperativity, affinity shift)",[3]; M4 PAM MK-4710,7.7
same,"β (cooperativity, efficacy shift)",[3]; M4 PAM MK-4710,1.1
same,τ (agonist pharmacology),[3]; M4 PAM MK-4710,0.0
same,EC50,[3]; MK-4710 concentration 0 nM,33.8 nM
same,Emax,[3]; MK-4710 concentration 0 nM,46.7%
same,Emax,[3]; [10],49.5%
same,Emax,[3]; [11],48.3%
same,Emax at […],[3]; MK-4710 concentration 370 nM,53.4%
same,Emax,[3]; [13],51.1%
same,Emax,[3]; [14],64.4%
same,Emax at […],[3]; MK-4710 concentration […],45.6%
